Data on two compounds can be found in US12440833B2, “Sample containers adapted for acoustic ejections and sample preservation and methods thereof” (priority 2011, dated 2025).

Where two headings read alike, the source gives them in different places.

Test [1] addresses T1, TPCK trypsin (Bos taurus, UniProt P00760).
T1 construct: purchased Thermo Scientific Pierce 23266
T1 sequence (P00760 24-246): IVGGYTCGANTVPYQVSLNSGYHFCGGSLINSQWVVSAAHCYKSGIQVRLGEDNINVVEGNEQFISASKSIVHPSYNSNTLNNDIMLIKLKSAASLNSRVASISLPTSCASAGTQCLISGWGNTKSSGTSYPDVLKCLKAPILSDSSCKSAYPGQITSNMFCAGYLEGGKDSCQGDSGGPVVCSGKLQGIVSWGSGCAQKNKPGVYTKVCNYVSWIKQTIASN
The test is classed as biochemical. Particulars: for average fluorescence of wells with trypsin exposed to tubes with immobilized ligand: 12.5 ng trypsin per tube, 120 minutes at room temperature. As to the method:
(§1) Protease activity and the inhibition thereof were measured with a Fluorescent Protease Assay Kit (Thermo Scientific Pierce, catalog number 23266). TRIS-buffered saline (TBS, 25 mM Tris, 0.15 M NaCl, pH 7.2) was reconstituted from dry solids in the kit with deionized water. Trypsin stock solution was freshly prepared by dissolving TPCK trypsin from kit with 1 mL deionized water to make a 50 mg/mL solution. Aliquots of 10 μL were stored at −60° C. Individual aliquots of the stock solution were diluted in 1.0 mL of TBS (0.5 mg/mL), and 10 μL of this solution was further diluted in 10 mL of TBS (0.5 μg/mL). This solution was serially diluted 1:1 with TBS to create a trypsin solution of 62.5 ng/mL. The trypsin solution was kept in an ice bath until use. 200 μL of the diluted trypsin (12.5 ng) was added to each prepared polypropylene tube. The solution was aspirated and re-dispensed three times in each tube to assure complete mixing and contact of the solution with the derivatized internal walls of the tubes. A new disposable tip was used for each transfer. After incubation at room temperature for 120 minutes, 100 μL of the trypsin solution from each tube was placed into individual wells of a 96-well, black, flat-bottomed plate (Greiner Bio-one, catalog number 655076, Monroe, N.C.). FTC-casein—(casein protein modified by the addition of fluorescein isothiocyanate, a part of the Fluorescent Protease Assay Kit) solution in TBS buffer was freshly prepared and 100 μL of this solution was added to each well and mixed via aspiration and dispense. The plate was incubated at room temperature for 95 minutes. The fluorescence of the samples in the 96-well plate was measured on a SpectraFluor Plus fluorescence spectrometer (Tecan, Mannedorf, Switzerland) 5 minutes after the solution was added and additionally after 10, 20, 40, 60 and 95 minutes. Increased fluorescence is indicative of trypsin-mediated digestion of the added FTC-casein solution via the decrease of FRET-based fluorescence quenching that exists in the intact protein.

Test [2] has as its target T1, TPCK trypsin. The test is classed as biochemical. The settings on record: for average fluorescence of wells with trypsin exposed to tubes with immobilized ligand: 12.5 ng trypsin per tube, 120 minutes at room temperature. How it is done:
as §1, with “solution. […]” for “solution.”, “FTC-casein—(casein protein modified by the addition of fluorescein isothiocyanate, a part of the Fluorescent Protease Assay Kit) solution in TBS buffer was freshly prepared and 100 μL of this solution was added to each well and mixed via aspiration and dispense.” left out, “The fluorescence of the samples in the 96-well plate was measured on a SpectraFluor Plus fluorescence spectrometer (Tecan, Mannedorf, Switzerland) 5 minutes after the solution was added and additionally after 10, 20, 40, 60 and 95 minutes.” left out
The source holds these as a separate data set.

[3] abbreviates: 0.1 mM TLCK in the well (not immobilized), after 20 minutes, background 5382 RFU.
Where [4] appears, read: Example B, ligand immobilized on tube wall, background 5382 RFU.
The mark [5] stands for this setting: Example A, ligand immobilized on tube wall, background 5382 RFU.

For `Cc1ccc(S(=O)(=O)N[C@@H](CCCCN)C(=O)CCl)cc1.Cl` [TLCK Ligand, N-alpha-tosyl-L-lysine chloromethyl ketone hydrochloride], the “fluorescence of wells that contained FTC-casein, trypsin and inhibitor” value in test [1] (setting [3]) and in test [2] (setting [3]) was 6841 RFU each time. Also, the figures for the “average fluorescence of wells with trypsin exposed to tubes with immobilized ligand” value in test [1] (setting [4]) and in test [2] (setting [5]) were 13386 RFU and 15521 RFU, respectively. Moreover, the “inhibition of trypsin activity” value in test [1] (Example B, ligand immobilized on tube wall, trypsin exposed 120 minutes at room temperature) is 48%; in test [2] (Example A, ligand immobilized on tube wall, trypsin exposed 120 minutes at room temperature), 35%.

With `NCCCO` [AP Ligand, 3-amino-1-propanol], the “average fluorescence of wells with trypsin exposed to tubes with immobilized ligand” value is listed as 20847 RFU in test [1] (setting [4]) and 21289 RFU in test [2] (setting [5]).
